Test results: BindingDB's records for doi:10.1021/jm00112a034 (Abbott Laboratories, 1991)

target: dopamine D1 receptor (Cyprinus carpio); assay: Concentration required to inhibit 50% dopamine receptor D1 activity using cell free homogenate of carp retina

How did the EC50 turn out when `NC[C@@H]1OC(c2ccc(Br)cc2)Cc2c1ccc(O)c2O` (stereo partly specified) was run?
The EC50 was 1 nM.

`NC[C@@H]1OC(CCc2ccccc2)Cc2c1ccc(O)c2O` (stereo partly specified) was tested. Which EC50 did it give?
Its EC50 is 5.2 nM.

`NC[C@@H]1OC(COc2ccccc2)Cc2c1ccc(O)c2O` (stereo partly specified) was tested. Which EC50 did it give?
Its EC50 is 24 nM.

With `OCCCNC[C@@H]1OC(C2CCCCC2)Cc2c1ccc(O)c2O` (stereo partly specified) as the compound, how does the EC50 read?
The EC50 was 1740 nM.

How did the EC50 turn out when `CCCCC1Cc2c(ccc(O)c2O)[C@H](CN)O1` (stereo partly specified) was run?
Its EC50 is 6.3 nM.

For `Oc1ccc2c(c1O)CC(C1CCCCC1)O[C@H]2CNC1CC1` (stereo partly specified), which EC50 is on record?
Its EC50 is 124 nM.

`COc1cccc(C2Cc3c(ccc(O)c3O)[C@H](CN)O2)c1` (stereo partly specified) was tested. Which EC50 did it give?
The EC50 was 6.4 nM.

Which EC50 does the source give for `C#CCNC[C@@H]1OC(C2CCCCC2)Cc2c1ccc(O)c2O` (stereo partly specified) here?
The EC50 was 13 nM.

Which EC50 does the source give for `NC[C@@H]1OC2(CCCCC2)Cc2c1ccc(O)c2O` here?
The EC50 was 69 nM.

With `CCCCCCC1Cc2c(ccc(O)c2O)[C@H](CN)O1` (stereo partly specified) as the compound, how does the EC50 read?
The EC50 was 14 nM.

Which EC50 does the source give for `NC[C@@H]1OC(CC2CCCC2)Cc2c1ccc(O)c2O` (stereo partly specified) here?
Its EC50 is 6.7 nM.

Which EC50 does the source give for `NC[C@@H]1OC(Cc2ccccc2)Cc2c1ccc(O)c2O` (stereo partly specified) here?
The EC50 was 34 nM.

`NC[C@@H]1OC(c2ccc(I)cc2)Cc2c1ccc(O)c2O` (stereo partly specified) was tested. Which EC50 did it give?
Its EC50 is 2 nM.

`NC[C@@H]1OC(COCc2ccccc2)Cc2c1ccc(O)c2O` (stereo partly specified) was tested. Which EC50 did it give?
Its EC50 is 89 nM.

`CC[C@@H]1Cc2c(ccc(O)c2O)[C@H](CN)O1` was tested. Which EC50 did it give?
Its EC50 is 142 nM.

`CC[C@H]1Cc2c(ccc(O)c2O)[C@H](CN)O1` was tested. Which EC50 did it give?
The EC50 was 232 nM.
